According to US4929736A, “Latent isocynate derivatives useful for deactivating enzymes” (Board of Trustees of the Wichita State University, priority 1986, dated 1990):

Experiments:
thromboxane synthetease = conditions: cited from earlier work
[1] = test system: PPE-induced emphysema in ICR mice; test: Simultaneous intratracheal instillation of PPE with inhibitor, emphysema induction; format: in vivo, mouse; conditions: for Emphysema: 10 days
Source text: (§1) Animal models of emphysema include intratracheal administration of an elastolytic protease (PPE, HLE or papain) to cause a slowly progressive, destructive lesion in the lung. These proteases induce a lesion that is evident in the first few hours.
(§2) The method used for in vivo evaluation involved injection of a test solution into the trachea, or directly into one bronchus. In general, the method of Hayes et al J. Pathol, 117, 1-14 (1975) was used. A fine teflon tubing was connected to a pipette and inserted into the trachea after the animals were lightly anesthetized by IP injection. The contents of the pipette were then ejected. […] It was further determined that instillation of 40 ug of PPE in the same volume causes an unambigous emphysematous lesion which is restricted to the instilled lobe. After 7 to 10 days to allow inflamation to subside, the animals were sacrificed followed by exsanguination via the descending aorta. PPE was used rather than HLE to produce the lesion because emphysema developes over a much shorter period of time. Emphysema then was induced under acute condition so that the effects of the compounds tested could be investigated under the time constraints of a laboratory procedure. PPE with an animal model has been used in research in the past to study other, unrelated, inhibitors. (Bergeson, S. H. et al., European Patent No. 0189305 (1986).
Animals were also used to evaluate the effect of simultaneous intratracheal installation of PPE with the above inhibitor compound. The ICR mice in this experiment were used to evaluate the effect of the inhibitor in preventing emphysema induction. Table IX below illustrates the results of these tests:
All animals were sacrificed ten days after instillation.

[2] = target: T1, Porcine pancreatic elastase (PPE) (Sus scrofa, UniProt P00772); test: Spectrophotometric assay of PPE inactivation (in vitro); format: biochemical; conditions: two tenths umoles
T1 sequence (P00772 27-266): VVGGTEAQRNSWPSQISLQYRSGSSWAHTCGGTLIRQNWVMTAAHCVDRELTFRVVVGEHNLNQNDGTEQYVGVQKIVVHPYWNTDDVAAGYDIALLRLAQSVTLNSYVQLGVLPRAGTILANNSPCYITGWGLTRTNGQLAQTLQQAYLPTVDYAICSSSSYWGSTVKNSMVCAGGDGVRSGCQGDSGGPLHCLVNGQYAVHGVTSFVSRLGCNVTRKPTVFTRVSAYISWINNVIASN

ICR mice = test: Tolerance of mice to IP or IT injection of inhibitor; format: in vivo, mouse; conditions: all treatments of Table VIII
Source text: as §1
as §2, with “PPE with an animal model has been used in research in the past to study other, unrelated, inhibitors. (Bergeson, S. H. et al., European Patent No. 0189305 (1986).” left out
Initially, the tolerance of 30-40 gram male ICR mice to intraperitoneal (IP) or intratracheal (IT) injection of inhibitor (Compound 5, Table I) was evaluated.

[3] = target: T2, Human leukocyte elastase (HLE) (Homo sapiens, UniProt P08246); test: Spectrophotometric assay of HLE inactivation (in vitro); format: biochemical
T2 construct: purchased Elastin Products, St. Louis, Mo
T2 sequence (P08246 30-267): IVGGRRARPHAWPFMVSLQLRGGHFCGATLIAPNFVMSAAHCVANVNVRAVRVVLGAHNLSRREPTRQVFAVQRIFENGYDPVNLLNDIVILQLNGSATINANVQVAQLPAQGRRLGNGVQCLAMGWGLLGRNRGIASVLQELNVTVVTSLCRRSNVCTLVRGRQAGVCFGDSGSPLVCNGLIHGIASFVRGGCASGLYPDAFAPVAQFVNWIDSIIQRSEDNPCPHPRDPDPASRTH
Experimental: The appropriate amount of inhibitor in acetonitrile was mixed with PPE in phosphate buffer solution and placed in a constant temperature bath. Aliquots were withdrawn at different time intervals and transferred to a cuvette containing 100 uL of substrate, 140 uL of acetonitrile, and 2 mL of phosphate buffer, pH 6.5. After incubating for 30 seconds, the absorbance change was monitored for two minutes at 347.5 nm. […] Controlled reactions for 100% PPE activity were run in the presence of acetonitrile. A similar procedure was followed for HLE.
(§3) The reaction of an irreversible inhibitor with PPE and HLE may be illustrated by the scheme shown below: [drawing 5] where EI is the noncovalently bound enzyme-inactivator complex and E-I is the final product with the inhibitor covalently bound to the enzyme. The kinetics data were analyzed according to known procedures. The apparent pseudo-first-order inactivation rate constants were determined from the slopes of semilogarithmic plots of enzymatic activity remaining versus time using the following equation: [formula] where Et /EO is the amount of active enzyme remaining after time "t".
The assay procedure used was the procedure identified relative to the tests above in Table I.
(kobsd) were determined by plotting in [E]t /[E]o vs time.

[4] = test system: Elastase-induced Emphysema in the Mouse; test: Protection against elastase-induced emphysema in the mouse, lung histology; format: in vivo
Source text: as §1, §2
In view of the fact that two tenths umoles of inhibitor is 100 times of the amount of the inhibitor necessary to inhibit the 40 ug of elastase in vitro, dosages were kept in the range of 1 to 10 umoles of inhibitor.
*Elastase: 20 ul containing 40 ug pancreatic elastase
As noted above, the method of in vivo testing is a modification of that of Hayes et al. However, the test solutions are inserted past the vocal chords into one bronchus by resistance. It was established initially that 20 ul of a solution of PPE (2 milligrams per milliter in saline) would create a reliable and unambigous emphysematous lesion. It should also be noted that the animals were scored for the presence of absence of such a lesion in any lobe without regard to the severity of the lesion.

alpha-Chymotrypsin = alpha-Chymotrypsin (Bos taurus, UniProt P00766); test: Inactivation of chymotrypsin; format: biochemical
[5] = target: T1, Porcine pancreatic elastase (PPE); test: Spectrophotometric assay of PPE inactivation (in vitro); format: biochemical
Experimental: The enzyme assays used to evaluate the potency of the inhibitors in vitro were performed as follows: PPE was assayed spectrophotometrically at 347.5 nm with (tert-butoxycarbonyl)-alanyl-p-nitrophenol in 0.05 M phosphate buffer, pH 6.5, 25° C., or by using succinyl-L-trialanyl-p-nitroanilide in 0.1 M Tris buffer, pH 8.0, at 410 nm. HLE was assayed spectrophotometrically at 410 nm with succinyl-L-trialanyl-p-nitroanilide or methoxy succinyl ala-ala-pro-val-p-nitroanilide (As describe by K. Wakajima et al in the J. Biol. Chem, 254, 4027-4032 (1979) and T. Teshima et al, in J. Biol. Chem 257, 5085-5091 (1982). The potency of an inhibitor is determined by obtaining a kinetic determination of the bimolecular rate constant K3 /Ki (or Robsd /[I]). The HLE used in these studies may be obtained from Elastin Products, St. Louis, Mo.) in 0.1 M Tris buffer, pH 8.0.
The appropriate amount of inhibitor in acetonitrile was mixed with PPE in phosphate buffer solution and placed in a constant temperature bath. Aliquots were withdrawn at different time intervals and transferred to a cuvette containing 100 uL of substrate, 140 uL of acetonitrile, and 2 mL of phosphate buffer, pH 6.5. After incubating for 30 seconds, the absorbance change was monitored for two minutes at 347.5 nm. The inhibitor-to-enzyme ratios varied between 50 and 200, and the incubation intervals were shortened or lengthened depending upon the potency of the inhibitor. Controlled reactions for 100% PPE activity were run in the presence of acetonitrile. A similar procedure was followed for HLE.
as §3, with “"t". Inhibition is generally expressed in terms of k3 /Ki, M^-1 s^-1, wherein Ki is the disassociation constant for the enzyme inhibitor complex and k3 is a limiting rate constant for the irreversible loss of enzymatic activity.” for “"t".”
Table I below illustrates the inhibition found with assays of nine amino-acid-derived azolides against PPE and HLE.

[6] = 1 umole, simultaneous administration, n=4
[7] = 5 umoles, 30 min, then elastase, n=3
[8] = 10 umoles, 1 hr, then elastase, n=7
[9] = 10 umoles, 2 hr, then elastase, n=6
[10] = 10 umoles, 3 hr, then elastase, n=2

Q: With `c1c[nH]cn1` [imidazole] as the compound, how does the “thromboxane synthetase inhibition (in words)” value (thromboxane synthetease) read?
A: inhibitor of thromboxane synthetease

Q: With `CCC[C@H](NC(=O)n1ccnc1)C(=O)OC` [Compound 5, Table I, L-N-(Imidazol-1-ylcarbonyl)norvaline Methyl Ester] as the compound, how does the Emphysema ([1]; IT 1 umole inhibitor, no PPE) read?
A: No

Q: And the Emphysema ([1]; IT 34 ug PPE + 1 umole inhibitor)?
A: No

Q: And the “Prevention of emphysema (in words)” value ([1]; given simultaneously with PPE)?
A: prevented emphysema

Q: And the “0.2 umoles inhibitor relative to amount necessary to inhibit 40 ug elastase in vitro” value [2]?
A: 100 times

Q: And the “Survival (in words)” value (ICR mice)?
A: all animals survived

Q: What about the abnormal pulmonary pathology (ICR mice) of the same compound?
A: no animals showed abnormal pulmonary pathology

Q: And the “effectiveness against HLE relative to PPE” value ([3]; HLE vs PPE in vitro)?
A: about eighty

Q: And the “Inhibition of HLE (in words)” value ([3]; listed as L-norvaline azolide)?
A: highly effective

Q: And the “Mouse Lung Histology, Emphysematous” value [4, 6]?
A: 0

Q: What about the “Mouse Lung Histology, Normal” value [4, 6] of the same compound?
A: 4

Q: What about the “Mouse Lung Histology, Emphysematous” value [4, 7] of the same compound?
A: 0

Q: And the “Mouse Lung Histology, Normal” value [4, 7]?
A: 3

Q: And the “Mouse Lung Histology, Emphysematous” value [4, 8]?
A: 5

Q: What about the “Mouse Lung Histology, Normal” value [4, 8] of the same compound?
A: 2

Q: What about the “Mouse Lung Histology, Emphysematous” value [4, 9] of the same compound?
A: 6

Q: And the “Mouse Lung Histology, Normal” value [4, 9]?
A: 0

Q: And the “Mouse Lung Histology, Emphysematous” value [4, 10]?
A: 2

Q: What about the “Mouse Lung Histology, Normal” value [4, 10] of the same compound?
A: 0

Q: And the “Mouse Lung Histology, Emphysematous” value ([4]; 10 umoles, no elastase, n=7)?
A: 0

Q: And the “Mouse Lung Histology, Normal” value ([4]; 10 umoles, no elastase, n=7)?
A: 7

Q: And the “tolerance of inhibitor doses” value ([4]; all mice, all doses)?
A: all mice treated tolerated all doses

Q: And the “effect on PPE in the animal model (in words)” value ([4]; mouse, in vivo)?
A: block the effects of PPE

Q: And the toxic side effects ([4]; mouse, in vivo)?
A: devoid of any toxic side effects

Q: Which kinact/KI (alpha-Chymotrypsin; Table V footnote a, read-out: kobsd /[I], alpha-Chymotrypsin) does the source give for `CS(=O)(=O)ON1C(=O)CC(Cc2ccccc2)C1=O` (racemic) [BENZYL, OSO2 CH3, (dl)-3-Benzyl-N-(methanesulfonyloxy) succinimide] here?
A: 9000 M⁻¹ s⁻¹

Q: And the “Inhibition of chymotrypsin (in words)” value (alpha-Chymotrypsin; comparable conditions)?
A: efficiently inactivated

Q: And the “Inhibition of PPE (in words)” value [5]?
A: unaffected

Q: What about the kinact/KI ([3]; Table V, succinimide derivatives, read-out: kobsd /[I], inhibition of leukocyte elastase) of the same compound?
A: 1170 M⁻¹ s⁻¹
